In US10266537B2, “3-acetylenyl-pyrazole-pyrimidine derivative, and preparation method therefor and uses thereof” (Si Chuan University, priority 2015, dated 2019):
Where two headings read alike, the source gives them in different places. Values belong to the molecule of their own block, whether it stands above or below them.

Key:
[1] = biological target: Abl (Homo sapiens (Human), UniProt P00519); assay: Kinase inhibition assay (KinaseProfiler, 33P-ATP); type: biochemical
[2] = biological target: B-Raf(V600E) (Homo sapiens (Human), UniProt P15056, V600E); assay: Kinase inhibition assay (KinaseProfiler, 33P-ATP); details: ATP at Km
[3] = biological target: JAK2 (Homo sapiens (Human), UniProt O60674); assay: Kinase inhibition assay (KinaseProfiler, 33P-ATP); type: biochemical
[4] = system: CFPAC; assay: Cell proliferation inhibition assay (MTT); type: cell-based; details: Homo sapiens, read-out: Proliferation inhibitory activity IC50
[5] = system: MAPK1(h); assay: Kinase inhibition assay (KinaseProfiler, 33P-ATP); type: biochemical, human
[6] = biological target: MEK1(h) (Homo sapiens (Human), UniProt Q02750); assay: Kinase inhibition assay (KinaseProfiler, 33P-ATP); details: read-out: The percentage of the remaining active protein
[7] = biological target: JAK3(h) (Homo sapiens (Human), UniProt P52333); assay: Kinase inhibition assay (KinaseProfiler, 33P-ATP); type: biochemical; details: read-out: The percentage of the remaining active protein
[8] = system: plc/prf/5; assay: Cell proliferation inhibition assay (MTT); type: cell-based; details: Homo sapiens, 72 hours, read-out: Proliferation inhibitory activity IC50
[9] = system: HepG2; assay: Cell proliferation inhibition assay (MTT); type: cell-based; details: Homo sapiens, 72 hours, read-out: Proliferation inhibitory activity IC50
[10] = biological target: TAK1 (Homo sapiens (Human), UniProt O43318); assay: Kinase inhibition assay (KinaseProfiler, 33P-ATP); type: biochemical; details: for remaining activity at 10 µM: TAK1(h), read-out: The percentage of the remaining active protein
[11] = biological target: SRPK2(h) (Homo sapiens (Human), UniProt P78362); assay: Kinase inhibition assay (KinaseProfiler, 33P-ATP); type: biochemical; details: read-out: The percentage of the remaining active protein
[12] = biological target: Aurora-A(h) (Homo sapiens (Human), UniProt O14965); assay: Kinase inhibition assay (KinaseProfiler, 33P-ATP); type: biochemical; details: read-out: The percentage of the remaining active protein
[13] = biological target: Lyn(m) (Mus musculus (Mouse), UniProt P25911); assay: Kinase inhibition assay (KinaseProfiler, 33P-ATP); type: biochemical; details: read-out: The percentage of the remaining active protein
[14] = biological target: SAPK3(h) (Homo sapiens (Human), UniProt P53778); assay: Kinase inhibition assay (KinaseProfiler, 33P-ATP); type: biochemical; details: read-out: The percentage of the remaining active protein
[15] = biological target: Pyk2 (Homo sapiens (Human), UniProt Q14289); assay: Kinase inhibition assay (KinaseProfiler, 33P-ATP); type: biochemical; details: Pyk2(h), read-out: The percentage of the remaining active protein
[16] = biological target: cKit (D816H) (Homo sapiens (Human), UniProt P10721, D816H); assay: Kinase inhibition assay (KinaseProfiler, 33P-ATP); type: biochemical; details: cKit(D816H)(h), read-out: The percentage of the remaining active protein
[17] = biological target: NLK(h) (Homo sapiens (Human), UniProt Q9UBE8); assay: Kinase inhibition assay (KinaseProfiler, 33P-ATP); type: biochemical; details: read-out: The percentage of the remaining active protein
[18] = biological target: SNRK(h) (Homo sapiens (Human), UniProt Q9NRH2); assay: Kinase inhibition assay (KinaseProfiler, 33P-ATP); type: biochemical; details: read-out: The percentage of the remaining active protein
[19] = biological target: MINK(h) (Homo sapiens (Human), UniProt Q8N4C8); assay: Kinase inhibition assay (KinaseProfiler, 33P-ATP); type: biochemical; details: read-out: The percentage of the remaining active protein
[20] = biological target: AMPKα2(h) (Homo sapiens (Human), UniProt P54646); assay: Kinase inhibition assay (KinaseProfiler, 33P-ATP); type: biochemical; details: read-out: The percentage of the remaining active protein
[21] = biological target: ALK2(h) (Homo sapiens (Human), UniProt Q04771); assay: Kinase inhibition assay (KinaseProfiler, 33P-ATP); type: biochemical; details: read-out: The percentage of the remaining active protein
[22] = biological target: TAO2 (Homo sapiens (Human), UniProt Q9UL54); assay: Kinase inhibition assay (KinaseProfiler, 33P-ATP); type: biochemical; details: TAO2(h), read-out: The percentage of the remaining active protein
[23] = biological target: PKD2(h) (Homo sapiens (Human), UniProt Q9BZL6); assay: Kinase inhibition assay (KinaseProfiler, 33P-ATP); type: biochemical; details: read-out: The percentage of the remaining active protein
[24] = biological target: DCAMKL2(h) (Homo sapiens (Human), UniProt Q8N568); assay: Kinase inhibition assay (KinaseProfiler, 33P-ATP); type: biochemical; details: read-out: The percentage of the remaining active protein
[25] = biological target: PIP5K1a(h) (Homo sapiens (Human), UniProt Q99755); assay: Kinase inhibition assay (KinaseProfiler, 33P-ATP); type: biochemical; details: read-out: The percentage of the remaining active protein
[26] = biological target: CK1γ2(h) (Homo sapiens (Human), UniProt P78368); assay: Kinase inhibition assay (KinaseProfiler, 33P-ATP); type: biochemical; details: read-out: The percentage of the remaining active protein
[27] = biological target: PI3 Kinase (p110b/p85a)(m) (Mus musculus (Mouse), UniProt Q8BTI9); assay: Kinase inhibition assay (KinaseProfiler, 33P-ATP); type: biochemical; details: read-out: The percentage of the remaining active protein
[28] = biological target: CDK2/cyclinE(h) (Homo sapiens (Human), UniProt P24941); assay: Kinase inhibition assay (KinaseProfiler, 33P-ATP); type: biochemical; details: read-out: The percentage of the remaining active protein
[29] = biological target: MAPK2(m) (Mus musculus (Mouse), UniProt P63085); assay: Kinase inhibition assay (KinaseProfiler, 33P-ATP); type: biochemical; details: read-out: The percentage of the remaining active protein
[30] = biological target: GRK6(h) (Homo sapiens (Human), UniProt P43250); assay: Kinase inhibition assay (KinaseProfiler, 33P-ATP); type: biochemical; details: read-out: The percentage of the remaining active protein
[31] = biological target: Rsk1(h) (Homo sapiens (Human), UniProt Q15418); assay: Kinase inhibition assay (KinaseProfiler, 33P-ATP); type: biochemical; details: read-out: The percentage of the remaining active protein
[32] = biological target: cKit(h) (Homo sapiens (Human), UniProt P10721); assay: Kinase inhibition assay (KinaseProfiler, 33P-ATP); type: biochemical; details: 10 μM, read-out: The percentage of the remaining active protein
[33] = biological target: NEK2(h) (Homo sapiens (Human), UniProt P51955); assay: Kinase inhibition assay (KinaseProfiler, 33P-ATP); type: biochemical; details: read-out: The percentage of the remaining active protein
[34] = biological target: NEK9(h) (Homo sapiens (Human), UniProt Q8TD19); assay: Kinase inhibition assay (KinaseProfiler, 33P-ATP); type: biochemical; details: read-out: The percentage of the remaining active protein
[35] = biological target: Arg(m) (Mus musculus (Mouse), UniProt Q4JIM5); assay: Kinase inhibition assay (KinaseProfiler, 33P-ATP); type: biochemical; details: read-out: The percentage of the remaining active protein
[36] = biological target: MAPKAP-K2(h) (Homo sapiens (Human), UniProt P49137); assay: Kinase inhibition assay (KinaseProfiler, 33P-ATP); type: biochemical; details: read-out: The percentage of the remaining active protein

Chain of TAK1 (O43318 1-303): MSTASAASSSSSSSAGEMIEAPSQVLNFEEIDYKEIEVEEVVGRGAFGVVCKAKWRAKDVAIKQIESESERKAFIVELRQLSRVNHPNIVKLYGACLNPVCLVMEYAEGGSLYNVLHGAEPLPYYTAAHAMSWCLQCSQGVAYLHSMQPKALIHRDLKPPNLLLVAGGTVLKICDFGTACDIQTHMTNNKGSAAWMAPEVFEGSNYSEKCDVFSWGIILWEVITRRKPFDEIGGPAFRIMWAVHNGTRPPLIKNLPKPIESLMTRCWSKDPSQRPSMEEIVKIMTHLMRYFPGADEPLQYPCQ
Chain of JAK3(h) (P52333 whole entry): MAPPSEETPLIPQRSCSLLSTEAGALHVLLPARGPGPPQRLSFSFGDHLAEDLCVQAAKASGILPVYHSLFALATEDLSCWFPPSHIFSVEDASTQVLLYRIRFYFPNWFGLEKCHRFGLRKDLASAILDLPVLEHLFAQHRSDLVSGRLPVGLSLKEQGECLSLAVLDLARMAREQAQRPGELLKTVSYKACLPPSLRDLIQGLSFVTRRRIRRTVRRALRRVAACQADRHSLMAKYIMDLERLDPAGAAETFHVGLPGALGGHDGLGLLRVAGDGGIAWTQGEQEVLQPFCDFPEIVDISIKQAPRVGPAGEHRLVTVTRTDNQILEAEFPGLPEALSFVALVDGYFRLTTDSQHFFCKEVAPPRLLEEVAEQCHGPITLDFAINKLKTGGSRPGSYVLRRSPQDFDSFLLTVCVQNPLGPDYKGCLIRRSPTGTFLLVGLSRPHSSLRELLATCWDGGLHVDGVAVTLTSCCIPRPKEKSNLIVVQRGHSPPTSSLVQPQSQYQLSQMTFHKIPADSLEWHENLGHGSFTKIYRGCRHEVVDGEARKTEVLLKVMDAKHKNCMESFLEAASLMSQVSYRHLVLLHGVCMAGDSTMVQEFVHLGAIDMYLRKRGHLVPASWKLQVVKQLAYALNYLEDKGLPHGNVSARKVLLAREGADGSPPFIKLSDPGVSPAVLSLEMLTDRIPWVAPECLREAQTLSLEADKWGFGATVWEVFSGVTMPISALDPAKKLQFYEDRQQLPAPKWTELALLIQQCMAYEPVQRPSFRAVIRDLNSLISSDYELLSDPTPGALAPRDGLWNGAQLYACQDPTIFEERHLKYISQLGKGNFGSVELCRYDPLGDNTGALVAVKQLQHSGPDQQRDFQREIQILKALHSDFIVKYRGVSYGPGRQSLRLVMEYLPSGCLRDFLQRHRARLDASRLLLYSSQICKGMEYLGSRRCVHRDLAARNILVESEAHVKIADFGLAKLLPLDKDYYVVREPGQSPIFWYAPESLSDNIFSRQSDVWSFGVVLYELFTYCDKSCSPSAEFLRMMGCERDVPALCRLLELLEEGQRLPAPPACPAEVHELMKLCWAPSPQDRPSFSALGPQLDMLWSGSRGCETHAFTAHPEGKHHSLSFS
Chain of B-Raf(V600E) (P15056 whole entry V600E): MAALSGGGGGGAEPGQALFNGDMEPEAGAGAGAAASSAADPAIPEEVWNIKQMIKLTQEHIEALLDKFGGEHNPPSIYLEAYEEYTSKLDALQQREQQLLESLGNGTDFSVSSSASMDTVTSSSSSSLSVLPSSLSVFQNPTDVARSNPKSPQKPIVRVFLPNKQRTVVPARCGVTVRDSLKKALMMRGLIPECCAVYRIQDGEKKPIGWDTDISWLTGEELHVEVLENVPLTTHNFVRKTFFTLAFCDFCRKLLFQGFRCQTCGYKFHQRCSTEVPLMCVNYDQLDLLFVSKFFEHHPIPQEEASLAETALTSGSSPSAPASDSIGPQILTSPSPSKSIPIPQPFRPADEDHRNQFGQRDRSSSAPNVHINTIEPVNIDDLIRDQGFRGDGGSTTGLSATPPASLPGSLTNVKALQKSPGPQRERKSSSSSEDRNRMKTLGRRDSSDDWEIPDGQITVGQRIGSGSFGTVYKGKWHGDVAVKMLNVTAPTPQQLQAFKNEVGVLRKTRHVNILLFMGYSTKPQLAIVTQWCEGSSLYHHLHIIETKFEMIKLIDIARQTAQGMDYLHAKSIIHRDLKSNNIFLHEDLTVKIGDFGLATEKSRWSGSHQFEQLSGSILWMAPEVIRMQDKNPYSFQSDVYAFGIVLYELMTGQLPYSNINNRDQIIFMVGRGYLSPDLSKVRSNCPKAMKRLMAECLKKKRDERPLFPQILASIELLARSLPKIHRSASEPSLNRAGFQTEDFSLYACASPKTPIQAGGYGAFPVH
Chain of JAK2 (O60674 whole entry): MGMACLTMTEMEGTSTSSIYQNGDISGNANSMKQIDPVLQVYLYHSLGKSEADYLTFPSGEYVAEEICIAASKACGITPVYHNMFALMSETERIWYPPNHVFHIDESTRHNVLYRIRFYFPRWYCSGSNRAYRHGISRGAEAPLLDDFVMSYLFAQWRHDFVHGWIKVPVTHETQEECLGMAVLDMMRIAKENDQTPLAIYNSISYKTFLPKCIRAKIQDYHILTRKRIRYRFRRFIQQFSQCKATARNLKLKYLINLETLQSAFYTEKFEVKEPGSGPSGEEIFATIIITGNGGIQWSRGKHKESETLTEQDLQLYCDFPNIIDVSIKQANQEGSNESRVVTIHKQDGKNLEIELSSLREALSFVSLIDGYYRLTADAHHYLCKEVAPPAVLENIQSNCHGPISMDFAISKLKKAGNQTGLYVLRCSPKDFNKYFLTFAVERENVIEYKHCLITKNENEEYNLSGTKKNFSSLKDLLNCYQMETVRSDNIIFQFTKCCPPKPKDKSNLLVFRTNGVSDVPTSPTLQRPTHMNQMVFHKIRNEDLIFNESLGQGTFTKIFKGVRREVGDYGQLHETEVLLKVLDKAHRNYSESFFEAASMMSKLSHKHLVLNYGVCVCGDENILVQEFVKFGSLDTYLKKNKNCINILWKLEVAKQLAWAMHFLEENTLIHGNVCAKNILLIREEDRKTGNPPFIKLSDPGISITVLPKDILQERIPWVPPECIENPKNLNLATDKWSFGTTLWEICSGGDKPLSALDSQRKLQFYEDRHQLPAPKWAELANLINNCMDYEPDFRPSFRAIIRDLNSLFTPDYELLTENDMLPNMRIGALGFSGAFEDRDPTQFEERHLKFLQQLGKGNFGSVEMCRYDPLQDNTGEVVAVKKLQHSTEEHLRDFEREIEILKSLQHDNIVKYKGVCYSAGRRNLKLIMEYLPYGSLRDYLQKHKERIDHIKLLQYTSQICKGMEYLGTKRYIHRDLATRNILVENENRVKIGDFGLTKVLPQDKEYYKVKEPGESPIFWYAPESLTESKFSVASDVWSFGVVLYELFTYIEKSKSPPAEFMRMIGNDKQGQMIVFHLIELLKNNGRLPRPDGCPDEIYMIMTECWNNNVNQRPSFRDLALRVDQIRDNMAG
Chain of Abl (P00519 whole entry): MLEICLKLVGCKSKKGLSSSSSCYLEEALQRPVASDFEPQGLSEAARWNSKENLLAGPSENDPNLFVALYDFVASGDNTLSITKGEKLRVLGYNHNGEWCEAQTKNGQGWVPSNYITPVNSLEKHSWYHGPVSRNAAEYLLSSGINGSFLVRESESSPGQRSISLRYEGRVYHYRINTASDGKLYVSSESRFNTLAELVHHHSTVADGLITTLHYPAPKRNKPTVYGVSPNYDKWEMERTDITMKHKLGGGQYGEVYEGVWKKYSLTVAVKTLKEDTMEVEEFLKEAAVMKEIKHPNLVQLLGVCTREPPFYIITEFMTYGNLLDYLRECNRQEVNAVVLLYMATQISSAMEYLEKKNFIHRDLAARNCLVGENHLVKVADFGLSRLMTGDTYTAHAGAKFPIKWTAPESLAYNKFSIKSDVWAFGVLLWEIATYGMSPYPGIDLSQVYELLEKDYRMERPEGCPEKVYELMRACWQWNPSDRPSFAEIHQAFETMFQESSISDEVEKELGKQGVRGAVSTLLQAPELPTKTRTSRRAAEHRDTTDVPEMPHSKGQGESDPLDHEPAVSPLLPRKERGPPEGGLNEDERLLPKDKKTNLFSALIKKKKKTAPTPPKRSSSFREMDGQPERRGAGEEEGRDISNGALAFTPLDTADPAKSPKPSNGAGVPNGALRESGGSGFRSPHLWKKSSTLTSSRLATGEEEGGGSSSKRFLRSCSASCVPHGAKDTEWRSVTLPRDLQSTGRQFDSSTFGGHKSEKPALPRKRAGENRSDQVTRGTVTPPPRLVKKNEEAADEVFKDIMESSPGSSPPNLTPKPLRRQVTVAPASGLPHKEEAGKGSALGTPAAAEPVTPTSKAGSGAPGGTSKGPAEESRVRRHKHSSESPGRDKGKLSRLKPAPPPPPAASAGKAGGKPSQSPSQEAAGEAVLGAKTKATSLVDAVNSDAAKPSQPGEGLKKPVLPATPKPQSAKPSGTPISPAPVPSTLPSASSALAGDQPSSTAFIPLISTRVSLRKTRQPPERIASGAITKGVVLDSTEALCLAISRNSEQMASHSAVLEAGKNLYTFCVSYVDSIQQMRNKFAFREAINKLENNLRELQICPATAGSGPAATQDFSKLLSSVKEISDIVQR
Chain of MEK1(h) (Q02750 whole entry): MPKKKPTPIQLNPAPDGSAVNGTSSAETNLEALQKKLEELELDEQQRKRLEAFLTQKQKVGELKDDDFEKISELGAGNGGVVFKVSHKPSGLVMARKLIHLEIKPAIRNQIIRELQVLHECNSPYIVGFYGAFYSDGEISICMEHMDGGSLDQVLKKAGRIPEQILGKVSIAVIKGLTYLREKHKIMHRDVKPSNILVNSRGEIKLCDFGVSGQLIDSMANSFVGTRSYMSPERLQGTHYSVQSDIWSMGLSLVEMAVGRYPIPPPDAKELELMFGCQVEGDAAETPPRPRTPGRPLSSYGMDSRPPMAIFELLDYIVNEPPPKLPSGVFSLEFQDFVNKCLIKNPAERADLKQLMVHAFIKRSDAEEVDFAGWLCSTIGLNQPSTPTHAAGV

Compound: CCn1nc(C#Cc2cc(C(=O)Nc3ccc(CN4CCN(C)CC4)c(C(F)(F)F)c3)ccc2C)c2c(N)ncnc21 [Compound 3]
- IC50 ([1]; Abl, ATP at Km): < 1 nM
- IC50 [2]: 15 nM
- IC50 ([3]; JAK2, ATP at Km): 2910 nM
- IC50 ([4]; 72 h): 607 nM

- The percentage of the remaining active protein ([5]; compound at 10 μM): 66%
- remaining activity at 10 µM [6]: 52%
- remaining activity at 10 µM ([7]; compound at 10 μM): 29%
- IC50 [2]: 5 nM
- IC50 [9]: 6.17 µM
- remaining activity at 10 µM ([10]; compound at 10 μM): 2%
- IC50 ([10]; TAK1, ATP at Km): 203 nM
Compound: Cc1ccc(NC(=O)c2cccc(C(F)(F)F)c2)cc1C#Cc1nn(C2CCN(C)CC2)c2ncnc(N)c12 [Compound 31]
- IC50 [8]: 3.97 µM
- IC50 ([4]; CFPAC, MTT, 72 hours): 472 nM

- The percentage of the remaining active protein ([5]; 10 μM): 87%
- remaining activity at 10 µM [6]: 34%
- remaining activity at 10 µM [11]: 107%
- remaining activity at 10 µM ([1]; Abl(h), 10 μM, read-out: The percentage of the remaining active protein): -3%
- remaining activity at 10 µM [12]: 64%
- remaining activity at 10 µM ([7]; 10 μM): 7%
- remaining activity at 10 µM [13]: -1%
- remaining activity at 10 µM [14]: 68%
- remaining activity at 10 µM [15]: 5%
- remaining activity at 10 µM [16]: 1%
- remaining activity at 10 µM [17]: 82%
- remaining activity at 10 µM [18]: 92%
- remaining activity at 10 µM [19]: 25%
- remaining activity at 10 µM [20]: 90%
- remaining activity at 10 µM [21]: 77%
- remaining activity at 10 µM [22]: 5%
- remaining activity at 10 µM [23]: 108%
- remaining activity at 10 µM [24]: 102%
- remaining activity at 10 µM [25]: 102%
- remaining activity at 10 µM [26]: 114%
- remaining activity at 10 µM [27]: 84%
- remaining activity at 10 µM ([3]; JAK2(h), 10 μM, read-out: The percentage of the remaining active protein): 64%
- remaining activity at 10 µM [28]: 102%
- remaining activity at 10 µM [29]: 101%
- remaining activity at 10 µM [30]: 100%
- remaining activity at 10 µM [31]: 11%
- remaining activity at 10 µM [32]: 89%
- IC50 [9]: ~10 µM
- remaining activity at 10 µM [33]: 117%
- remaining activity at 10 µM [35]: -1%
- remaining activity at 10 µM ([10]; 10 μM): 1%
- remaining activity at 10 µM [36]: 104%
Compound: Cc1ccc(NC(=O)c2ccc(C)c(C(F)(F)F)c2)cc1C#Cc1nn([C@H]2CC[C@H](O)CC2)c2ncnc(N)c12 [Compound 93]
- IC50 [8]: ~10 µM
- remaining activity at 10 µM [34]: 59%
